Assay results published in patent publication US20250049033A1, “PESTICIDALLY ACTIVE PYRIDAZINONE COMPOUNDS” (SYNGENTA CROP PROTECTION AG, priority 2021, published 2025).

Legend:
Assay type in all cases: in vivo
[1] = tested on: Euschistus heros; assay: Activity against Euschistus heros (neotropical brown stink bug), soybean leaves, N2 nymphs; details: 120 h, application rate 200 ppm, 5 days after infestation, vs untreated, read-out: effect in at least one of the two categories (mortality or growth inhibition)
Protocol: Example B3: Activity Against Euschistus heros (Neotropical Brown Stink Bug)
Soybean leaves on agar in 24-well microtiter plates were sprayed with aqueous test solutions prepared from 10′000 ppm DMSO stock solutions. After drying the leaves were infested with N2 nymphs. The samples were assessed for mortality and growth inhibition in comparison to untreated samples 5 days after infestation.

[2] = tested on: Frankliniella occidentalis; assay: Activity against Frankliniella occidentalis (western flower thrips), feeding/contact activity; details: foliar, 168 h, application rate 200 ppm, 7 days after infestation, sunflower leaf discs, mixed ages
Protocol: Example B4: Activity Against Frankliniella occidentalis (Western Flower Thrips). Feeding/Contact Activity
Sunflower leaf discs were placed on agar in 24-well microtiter plates and sprayed with aqueous test solutions prepared from […] stock solutions. After drying the leaf discs were infested with a Frankliniella population of mixed ages. The samples were assessed for mortality 7 days after infestation.

[3] = tested on: Myzus persicae; assay: Activity against Myzus persicae (green peach aphid), feeding/contact activity; details: foliar, 144 h, application rate 200 ppm, 6 days after infestation, sunflower leaf discs, mixed ages
Protocol: Example B5: Activity Against Myzus persicae (Green Peach Aphid). Feeding/Contact Activity
Sunflower leaf discs were placed onto agar in a 24-well microtiter plate and sprayed with aqueous test solutions prepared from 10′000 ppm DMSO stock solutions. After drying, the leaf discs were infested with an aphid population of mixed ages. The samples were assessed for mortality 6 days after infestation.

[4] = tested on: Tetranychus urticae; assay: Activity against Tetranychus urticae (two-spotted spider mite), feeding/contact activity; details: foliar, 192 h
Protocol: Example B9: Activity Against Tetranychus urticae (Two-Spotted Spider Mite). Feeding/Contact Activity
Bean leaf discs on agar in 24-well microtiter plates were sprayed with aqueous test solutions prepared from 10′000 ppm DMSO stock solutions. After drying the leaf discs were infested with a mite population of mixed ages. The samples were assessed for mortality on mixed population (mobile stages) 8 days after infestation.

[5] = tested on: Plutella xylostella; assay: Activity against Plutella xylostella (diamond back moth), artificial diet, eggs; details: 192 h, application rate 200 ppm, 8 days after infestation, vs untreated, read-out: control in at least one of the two categories (mortality or growth inhibition)
Protocol: Example B7: Activity Against Plutella xylostella (Diamond Back Moth)
24-well microtiter plates with artificial diet were treated with aqueous test solutions prepared from 10′000 ppm DMSO stock solutions by pipetting. After drying, Plutella eggs were pipetted through a plastic stencil onto a gel blotting paper and the plate was closed with it. The samples were assessed for mortality and growth inhibition in comparison to untreated samples 8 days after infestation. The following compounds gave an effect of at least 80% control in at least one of the two categories (mortality or growth inhibition) at an application rate of 200 ppm: P1, P2, P3, P4, P6, P7, P8, P9, P10, P11, P12, P13, P14, P15, P16, P17, P18, P19, P20, P21, P22, P23, P24, P25, P26, P27.

[6] = tested on: Diabrotica balteata; assay: Activity against Diabrotica balteata (corn root worm), maize sprouts, L2 larvae; details: 96 h, application rate 200 ppm, 4 days after infestation, vs untreated, read-out: control in at least one of the two categories (mortality or growth inhibition)
Protocol: Example B2: Activity Against Diabrotica balteata (Corn Root Worm)
Maize sprouts placed onto an agar layer in 24-well microtiter plates were treated with aqueous test solutions prepared from 10′000 ppm DMSO stock solutions by spraying. After drying, the plates were infested with L2 larvae (6 to 10 per well). The samples were assessed for mortality and growth inhibition in comparison to untreated samples 4 days after infestation.

[7] = tested on: Chilo suppressalis; assay: Activity against Chilo suppressalis (striped rice stemborer), artificial diet, L2 larvae; details: 144 h, application rate 200 ppm, 6 days after infestation, vs untreated, read-out: control in at least one of the three categories (mortality, anti-feedant effect, or growth inhibition)
Protocol: Example B1: Activity Against Chilo suppressalis (Striped Rice Stemborer)
24-well microtiter plates with artificial diet were treated with aqueous test solutions prepared from 10′000 ppm DMSO stock solutions by pipetting. After drying, the plates were infested with L2 larvae (6-8 per well). The samples were assessed for mortality, anti-feeding effect, and growth inhibition in comparison to untreated samples 6 days after infestation. Control of Chilo suppressalis by a test sample is given when at least one of the categories mortality, anti-feedant effect, and growth inhibition is higher than the untreated sample.

[8] = tested on: Myzus persicae; assay: Activity against Myzus persicae (green peach aphid), intrinsic activity; details: 120 h, test rate 12 ppm, 5 days after infestation, sucrose solution through Parafilm
Source text: Example B6: Activity Against Myzus persicae (Green Peach Aphid). Intrinsic Activity
Test compounds prepared from 10′000 ppm DMSO stock solutions were applied by pipette into 24-well microtiter plates and mixed with sucrose solution. The plates were closed with a stretched Parafilm. A plastic stencil with 24 holes was placed onto the plate and infested pea seedlings were placed directly on the Parafilm. The infested plate was closed with a gel blotting paper and another plastic stencil and then turned upside down. The samples were assessed for mortality 5 days after infestation.

[9] = tested on: Spodoptera littoralis; assay: Activity against Spodoptera littoralis (Egyptian cotton leaf worm), cotton leaf discs, L1 larvae; details: foliar, 72 h, application rate 200 ppm, 3 days after infestation, vs untreated, read-out: control in at least one of the three categories (mortality, anti-feedant effect, or growth inhibition)
Protocol: Example B8: Activity Against Spodoptera littoralis (Egyptian Cotton Leaf Worm)
Cotton leaf discs were placed onto agar in 24-well microtiter plates and sprayed with aqueous test solutions prepared from 10′000 ppm DMSO stock solutions. After drying the leaf discs were infested with five L1 larvae. The samples were assessed for mortality, anti-feeding effect, and growth inhibition in comparison to untreated samples 3 days after infestation. Control of Spodoptera littoralis by a test sample is given when at least one of the categories mortality, anti-feedant effect, and growth inhibition is higher than the untreated sample.

C[C@H](Nc1nc(=O)[nH]c2c(Cl)cc(C(F)(F)F)cc12)c1ncnn1-c1ccc(=O)n(C)n1 [P5, 8-chloro-4-[[(1S)-1-[2-(1-methyl-6-oxo-pyridazin-3-yl)-1,2,4-triazol-3-yl]ethyl]amino]-6-(trifluoromethyl)-1H-quinazolin-2-one]
≥ 80%: percent effect (mortality or growth inhibition) at 200 ppm [1] | mortality at 200 ppm [2]

C[C@@H](c1ncnn1-c1ccc(=O)n(C)n1)N(C)c1ncnc2c(C(F)(F)F)cc(Cl)cc12 [P6, 6-[5-[(1S)-1-[[6-chloro-8-(trifluoro-methyl)quinazolin-4-yl]-methyl-amino]ethyl]-1,2,4-triazol-1-yl]-2-methyl-pyr-idazin-3-one]
≥ 80%: mortality at 200 ppm [3] | mortality at 200 ppm [4] | percent control (mortality or growth inhibition) at 200 ppm [5] | percent control (mortality or growth inhibition) at 200 ppm [6] | percent control (mortality, anti-feedant effect or growth inhibition) at 200 ppm [7] | percent effect (mortality or growth inhibition) at 200 ppm [1] | mortality at 12 ppm [8] | percent control (mortality, anti-feedant effect or growth inhibition) at 200 ppm [9]
